Drawing on ChEMBL document CHEMBL1137157, “Synthesis and biological activity of 2-anilino-4-(1H-pyrrol-3-yl) pyrimidine CDK inhibitors” (Bioorg Med Chem Lett, 2004), this text covers IC50 and Ki for 12 compounds.

The subject of assay [1] is Cell line. The experiment in a line: inhibitory concentration for anti-proliferative activity against A549 and […] human tumor cell lines was determined. The class given is functional, cell-based.
Assay [2] has as its target Cyclin-dependent kinase 2 (Homo sapiens, UniProt P24941). The experiment in a line: Inhibition of Cyclin dependent kinase 2.
For assay [3], the target named is Cyclin-dependent kinase 4 (Homo sapiens, UniProt P11802). The assay is described as follows: Inhibition of Cyclin dependent kinase 4.
Sequence of Cyclin-dependent kinase 4 (P11802 whole entry): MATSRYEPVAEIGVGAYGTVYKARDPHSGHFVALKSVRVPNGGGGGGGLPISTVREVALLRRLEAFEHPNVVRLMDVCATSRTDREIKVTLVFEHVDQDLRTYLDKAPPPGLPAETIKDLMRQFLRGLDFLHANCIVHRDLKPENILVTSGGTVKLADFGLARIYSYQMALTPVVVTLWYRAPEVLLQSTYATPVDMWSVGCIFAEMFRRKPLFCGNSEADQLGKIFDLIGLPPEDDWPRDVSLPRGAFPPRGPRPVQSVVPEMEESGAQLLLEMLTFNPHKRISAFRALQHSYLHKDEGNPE

A word on the IC50: it is the concentration needed to halve the response being measured. Low values mean inhibition by little substance, high ones a need for much substance. Regarding `Cc1ccc(Nc2nccc(-c3c(C)[nH]c(C#N)c3C)n2)cc1[N+](=O)[O-]`, the IC50 in assay [1] was 380 nM.

`Cc1[nH]c(C#N)c(C)c1-c1ccnc(Nc2ccc(O)cc2)n1` gave an IC50 in assay [1] of 1360 nM.

What is called Ki is the dissociation constant of the complex between target and ligand, obtained from inhibition or displacement. Read a high Ki as lower affinity. Consider `Cc1[nH]c(Br)c(C)c1-c1ccnc(Nc2ccc(F)cc2)n1`, for which, in assay [1], the concentration for half-maximal inhibition (IC50) was found to be 16000 nM. Moreover, the Ki in assay [2] was found to be 270 nM.

For the compound `Cc1cc(Nc2nccc(-c3c(C)[nH]c(C#N)c3C)n2)ccc1F`, the midpoint of inhibition in assay [1], the IC50, lay at 890 nM. Besides, the affinity in assay [3], expressed as Ki, was 300 nM.

Turning to `Cc1[nH]c(C#N)c(C)c1-c1ccnc(Nc2ccc(F)cc2)n1`, it took 2440 nM to reach half-maximal inhibition in assay [1] (IC50). Moreover, the inhibition constant (Ki) in assay [2] stood at 100 nM.

In assay [1], `Cc1[nH]c(C#N)c(C)c1-c1ccnc(Nc2cccc([N+](=O)[O-])c2)n1` displayed an IC50 of 360 nM.

In assay [1], `Cc1ccc(Nc2nccc(-c3c(C)[nH]c(C#N)c3C)n2)cc1O` gave a half-maximal inhibitory concentration (IC50) of 1170 nM.

In the case of `Cc1[nH]c(C#N)c(C)c1-c1ccnc(Nc2cccc(O)c2)n1`, the IC50 in assay [1] worked out at 1840 nM. Also, in assay [2], the Ki was 30 nM.

As for `Cc1[nH]c(C(N)=O)c(C)c1-c1ccnc(Nc2ccc(F)cc2)n1`, 1640 nM corresponded to half-maximal inhibition in assay [1] (IC50). Further, the inhibition constant (Ki) in assay [3] stood at 420 nM.

`Cc1c[nH]c(C)c1-c1ccnc(Nc2cccc([N+](=O)[O-])c2)n1` showed a Ki in assay [3] of 4170 nM.

`Cc1[nH]c([N+](=O)[O-])c(C)c1-c1ccnc(Nc2ccc(F)cc2)n1` displayed an IC50 in assay [1] of 3120 nM. In assay [3], this compound came in with an inhibition constant Ki of 120 nM.

As for `Cc1[nH]c(Cl)c(C)c1-c1ccnc(Nc2ccc(F)cc2)n1`, in assay [1], the IC50 stood at 13000 nM. The compound further yielded an inhibition constant Ki in assay [2] of 360 nM.
